# Earlier results as cited in PubChem BioAssay AID1259409 (Chemical Carcinogenesis Research Information System (CCRIS), 2018).
# System: rodent chemically induced tumor inhibition, incidence and multiplicity
# Test: CCRIS tumor inhibitor studies
structure (smiles),measurement,setting,value
C[C@@H]1O[C@@H](OC[C@H]2O[C@@H](Oc3c(-c4ccc(O)c(O)c4)oc4cc(O)cc(O)c4c3=O)[C@H](O)[C@@H](O)[C@@H]2O)[C@H](O)[C@H](O)[C@H]1O,"tumour outcome (control, treated, inhibition, significance)","Carcinogen: 7,12-DIMETHYLBENZ[A]ANTHRACENE, 57-97-6, Dose [Inhibitor]: 0, 0.2 ML OF A 1% SOLUTION 1/D FOR 2 WK APPLIED 5 MIN POST EACH CARCINOGEN DOSE THEN 1/D FOR 4 WK DURING PROMOTION STAGE, Route [Inhibitor]: DERMAL, Species: MOUSE, Strain/Sex: SWISS/MALE, Target Tissue: Type of Lesion: SKIN: PAPILLOMA, Dose [Carcinogen]: 0.2 ML OF A 0.24% SOLUTION IN DMSO 1/D FOR 2 WK, Promoter: CROTON OIL, 8001-28-3","23/23 (100%), 14/24 (58%), 42%, not calculated"
same,"tumour outcome (control, treated, inhibition, significance)","Carcinogen: 7,12-DIMETHYLBENZ[A]ANTHRACENE, 57-97-6, Dose [Inhibitor]: 0, 0.2 ML OF A 1% SOLUTION 1/D FOR 2 WK APPLIED 5 MIN PRIOR TO EACH CARCINOGEN DOSE (STUDY DURATION: 20 WK), Route [Inhibitor]: DERMAL, Species: MOUSE, Strain/Sex: SWISS/MALE, Target Tissue: Type of Lesion: SKIN: PAPILLOMA, Dose [Carcinogen]: 0.2 ML OF A 0.24% SOLUTION IN DMSO 1/D FOR 2 WK, Promoter: CROTON OIL, 8001-28-3","23/23 (100%), 21/23 (91%), 9%, not calculated"
same,"tumour outcome (control, treated, inhibition, significance)","Carcinogen: AZOXYMETHANE, 25843-45-2, Dose [Inhibitor]: 0, 1% IN DIET FOR DURATION OF STUDY (STUDY DURATION: 48 WK), Route [Inhibitor]: ORAL, Species: MOUSE, Strain/Sex: CF-1/FEMALE, Target Tissue: Type of Lesion: COLON: TUMOR, Dose [Carcinogen]: 10 MG/KG BW 3 TIMES, Promoter: NONE USED","8/32 (25%), 9/35 (26%), -4%, not significant"
same,"tumour outcome (control, treated, inhibition, significance)","Carcinogen: AZOXYMETHANE, 25843-45-2, Dose [Inhibitor]: 0, 4% IN DIET FOR DURATION OF STUDY (STUDY DURATION: 48 WK), Route [Inhibitor]: ORAL, Species: MOUSE, Strain/Sex: CF-1/FEMALE, Target Tissue: Type of Lesion: COLON: TUMOR, Dose [Carcinogen]: 10 MG/KG BW 3 TIMES, Promoter: NONE USED","8/32 (25%), 3/31 (10%), 60%, not significant"
CC1=CCCC(C)(C)[C@H]1/C=C/C(C)=C/C=C/C(C)=C/C=C/C=C(C)/C=C/C=C(C)/C=C/C1=C(C)CCCC1(C)C,"tumour outcome (control, treated, inhibition, significance)","Carcinogen: 4-NITROQUINOLINE-1-OXIDE, 56-57-5, Dose [Inhibitor]: 0, 0.05% IN DRINKING WATER AD LIBITUM (STUDY DURATION: 30 WK), Route [Inhibitor]: ORAL, Species: MOUSE, Strain/Sex: DDY/MALE, Target Tissue: Type of Lesion: LUNG: TUMOR, Dose [Carcinogen]: 10 MG/KG BW IN OLIVE OIL/CHOLESTEROL (20:1) ONCE, Promoter: GLYCEROL, 56-81-5","94%, 73%, 22%, not significant"
same,"tumour outcome (control, treated, inhibition, significance)","Carcinogen: 4-NITROQUINOLINE-1-OXIDE, 56-57-5, Dose [Inhibitor]: 0, 0.05% IN DRINKING WATER BEGINNING 5 WK POST CARCINOGEN TREATMENT AND CONTINUING FOR 25 WK (STUDY DURATION: 30 WK), Route [Inhibitor]: ORAL, Species: MOUSE, Strain/Sex: DDY/MALE, Target Tissue: Type of Lesion: LUNG: TUMORS, Dose [Carcinogen]: 10 MG/KG BW IN OLIVE OIL AND CHOLESTEROL (20:1) ONCE, Promoter: NONE USED","94%, 73%, 22%, not calculated"
same,"tumour outcome (control, treated, inhibition, significance)","Carcinogen: 7,12-DIMETHYLBENZ[A]ANTHRACENE, 57-97-6, Dose [Inhibitor]: 0, 0.05% IN DRINKING WATER AD LIBITUM FOR 30 WK BEGINNING 1 WK POST CARCINOGEN DOSE (STUDY DURATION: 31 WK), Route [Inhibitor]: ORAL, Species: MOUSE, Strain/Sex: ICR/FEMALE, Target Tissue: Type of Lesion: SKIN: TUMOR, Dose [Carcinogen]: 100 UG ONCE, Promoter: 12-O-TETRADECANOYLPHORBOL-13-ACETATE, 16561-29-8","13/16 (81%), 7/16 (44%), 46%, not significant"
same,"tumour outcome (control, treated, inhibition, significance)","Carcinogen: 7,12-DIMETHYLBENZ[A]ANTHRACENE, 57-97-6, Dose [Inhibitor]: 0, 200 NMOL IN 200 µL ACETONE 2/WK BEGINNING 1 WK POST CARCINOGEN DOSE APPLIED SIMULTANEOUSLY WITH PROMOTER FOR 20 WK (S, Route [Inhibitor]: DERMAL, Species: MOUSE, Strain/Sex: ICR/?, Target Tissue: Type of Lesion: SKIN: PAPILLOMA, Dose [Carcinogen]: 100 UG ONCE, Promoter: 12-O-TETRADECANOYLPHORBOL-13-ACETATE, 16561-29-8","69%, 25%, 64%, not calculated"
same,"tumour outcome (control, treated, inhibition, significance)","Carcinogen: 7,12-DIMETHYLBENZ[A]ANTHRACENE, 57-97-6, Dose [Inhibitor]: 0, 200 NMOL IN 200 µL ACETONE 2/WK FOR 40 WK APPLIED SIMULTANEOUSLY WITH PROMOTER BEGINNING 1 WK POST CARCINOGEN DOSE (S, Route [Inhibitor]: DERMAL, Species: MOUSE, Strain/Sex: ICR/FEMALE, Target Tissue: Type of Lesion: SKIN: TUMOR, Dose [Carcinogen]: 100 UG ONCE, Promoter: 12-O-TETRADECANOYLPHORBOL-13-ACETATE, 16561-29-8","10/15 (67%), 5/15 (33%), 51%, p<0.01"
same,"tumour outcome (control, treated, inhibition, significance)","Carcinogen: 7,12-DIMETHYLBENZ[A]ANTHRACENE, 57-97-6, Dose [Inhibitor]: 0, 400 NMOL IN 200 µL ACETONE 2/WK BEGINNING 1 WK POST CARCINOGEN DOSE APPLIED SIMULTANEOUSLY WITH PROMOTER FOR 20 WK (S, Route [Inhibitor]: DERMAL, Species: MOUSE, Strain/Sex: ICR/?, Target Tissue: Type of Lesion: SKIN: PAPILLOMA, Dose [Carcinogen]: 100 UG ONCE, Promoter: 12-O-TETRADECANOYLPHORBOL-13-ACETATE, 16561-29-8","69%, 13%, 81%, not calculated"
same,"tumour outcome (control, treated, inhibition, significance)","Carcinogen: NONE USED, Dose [Inhibitor]: 0, 0.005% IN DRINKING WATER AD LIBITUM FOR 40 WK (STUDY DURATION: 40 WK), Route [Inhibitor]: ORAL, Species: MOUSE, Strain/Sex: C3H/HE/MALE, Target Tissue: Type of Lesion: LIVER: TUMOR, Promoter: NONE USED","100%, 100%, 0%, not significant"
same,"tumour outcome (control, treated, inhibition, significance)","Carcinogen: NONE USED, Dose [Inhibitor]: 0, 0.005% IN DRINKING WATER FOR 40 WK (STUDY DURATION: 40 WK), Route [Inhibitor]: ORAL, Species: MOUSE, Strain/Sex: C3H/HE/MALE, Target Tissue: Type of Lesion: LIVER: TUMORS, Promoter: NONE USED","16/16 (100%), 15/15 (100%), 0%, not significant"
same,"tumour outcome (control, treated, inhibition, significance)","Carcinogen: NONE USED, Dose [Inhibitor]: 0, 0.05% IN DRINKING WATER AD LIBITUM FOR 40 WK (STUDY DURATION: 40 WK), Route [Inhibitor]: ORAL, Species: MOUSE, Strain/Sex: C3H/HE/MALE, Target Tissue: Type of Lesion: LIVER: TUMOR, Promoter: NONE USED","100%, 94%, 6%, not significant"
same,"tumour outcome (control, treated, inhibition, significance)","Carcinogen: NONE USED, Dose [Inhibitor]: 0, 0.05% IN DRINKING WATER FOR 40 WK (STUDY DURATION: 40 WK), Route [Inhibitor]: ORAL, Species: MOUSE, Strain/Sex: C3H/HE/MALE, Target Tissue: Type of Lesion: LIVER: TUMORS, Promoter: NONE USED","16/16 (100%), 16/17 (94%), 6%, not calculated"
CCOC(=O)/C=C(/C=C/C=C(C)/C=C/c1c(C)cc(OC)c(C)c1C)C(F)(F)F,"tumour outcome (control, treated, inhibition, significance)","Carcinogen: 7,12-DIMETHYLBENZ[A]ANTHRACENE, 57-97-6, Dose [Inhibitor]: 140 NMOL IN 0.2 ML ACETONE 2/WK (D 1 AND D 4 OF EACH WK) 1 HR BEFORE EACH PROMOTER APPLICATION STARTING 14 D AFTER CARCI, Route [Inhibitor]: DERMAL, Species: MOUSE, Strain/Sex: CD-1/FEMALE, Target Tissue: Type of Lesion: SKIN: PAPILLOMA, Dose [Carcinogen]: 0.2 UMOL IN 0.2 ML ACETONE ONCE, Promoter: 12-O-TETRADECANOYLPHORBOL-13-ACETATE, 16561-29-8","90%, 100%, -11%, not significant"
S=C=NCCCCc1cccnc1,"tumour outcome (control, treated, inhibition, significance)","Carcinogen: 4-(METHYLNITROSAMINO)-1-(3-PYRIDYL)-1-BUTANONE, 64091-91-4, Dose [Inhibitor]: 0, 0.2 UMOL 1/D FOR 4 D ADMINISTERED PRIOR TO CARCINOGEN TREATMENT (STUDY DURATION: 116 D), Route [Inhibitor]: GAVAGE, Species: MOUSE, Strain/Sex: STRAIN A, Target Tissue: Type of Lesion: LUNG: ADENOMA, Dose [Carcinogen]: 10 UMOL ONCE 2 HR AFTER FINAL DOSE OF INHIBITOR, Promoter: NONE USED","100%, 100%, 0%, not significant"
same,"tumour outcome (control, treated, inhibition, significance)","Carcinogen: 4-(METHYLNITROSAMINO)-1-(3-PYRIDYL)-1-BUTANONE, 64091-91-4, Dose [Inhibitor]: 0, 1 UMOL 1/D FOR 4 D ADMINISTERED PRIOR TO CARCINOGEN TREATMENT (STUDY DURATION: 116 D), Route [Inhibitor]: GAVAGE, Species: MOUSE, Strain/Sex: STRAIN A, Target Tissue: Type of Lesion: LUNG: ADENOMA, Dose [Carcinogen]: 10 UMOL ONCE 2 HR AFTER FINAL DOSE OF INHIBITOR, Promoter: NONE USED","100%, 100%, 0%, not significant"
O=P(O)(O)O,"tumour outcome (control, treated, inhibition, significance)","Carcinogen: N-ETHYL-N-HYDROXYETHYLNITROSAMINE, 13147-25-6, Dose [Inhibitor]: 0, 10% IN DIET OF UNILATERALLY NEPHRECTOMIZED RATS BEGINNING POST CARCINOGEN TREATMENT AND CONTINUING FOR 18 WK (STUDY D, Route [Inhibitor]: ORAL, Species: RAT, Strain/Sex: WISTAR/MALE, Target Tissue: Type of Lesion: KIDNEY: RENAL CELL TUMOR, Dose [Carcinogen]: 1000 PPM IN DIET FOR 2 WK, Promoter: NONE USED","5/20 (25%), 3/18 (17%), 32%, not calculated"
